Laboratory results published in patent publication US20250215029A1 (Recludix Pharma, Inc., priority 2022, published 2025).
Like-named read-outs stand apart in the source and are kept apart here.

Assays:
[1] = target: T1, Recombinant STAT3 protein (STAT3 (G127-I722)) (Homo sapiens, UniProt P40763); test: STAT3 Fluorescence Polarization (FP) Assay; assay type: binding; settings: probe 5-FAM-GpYLPQTV-NH2 2 nM, 45-minute incubation
T1 construct: Recombinant STAT3 protein (STAT3 (G127-I722))
Summary of the method: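 In this competition FP format, STAT3 residues G127-I722 (25 nM) and 2 nM 5-FAM-GpYLPQTV-NH2 met test compounds for 45 min at room temperature. IC50 values result from fitting mP signal against log concentration by nonlinear regression.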

[2] = target: T2, Recombinant STAT6 protein (STAT6 (W123-T658)) (Homo sapiens, UniProt P42226); test: STAT6 Fluorescence Polarization (FP) Assay; assay type: binding; settings: probe 5-FAM-Ap[…]-NH2 2 nM, 45-minute incubation
T2 construct: Recombinant STAT6 protein (STAT6 (W123-T658))
T2 sequence (P42226 123-658): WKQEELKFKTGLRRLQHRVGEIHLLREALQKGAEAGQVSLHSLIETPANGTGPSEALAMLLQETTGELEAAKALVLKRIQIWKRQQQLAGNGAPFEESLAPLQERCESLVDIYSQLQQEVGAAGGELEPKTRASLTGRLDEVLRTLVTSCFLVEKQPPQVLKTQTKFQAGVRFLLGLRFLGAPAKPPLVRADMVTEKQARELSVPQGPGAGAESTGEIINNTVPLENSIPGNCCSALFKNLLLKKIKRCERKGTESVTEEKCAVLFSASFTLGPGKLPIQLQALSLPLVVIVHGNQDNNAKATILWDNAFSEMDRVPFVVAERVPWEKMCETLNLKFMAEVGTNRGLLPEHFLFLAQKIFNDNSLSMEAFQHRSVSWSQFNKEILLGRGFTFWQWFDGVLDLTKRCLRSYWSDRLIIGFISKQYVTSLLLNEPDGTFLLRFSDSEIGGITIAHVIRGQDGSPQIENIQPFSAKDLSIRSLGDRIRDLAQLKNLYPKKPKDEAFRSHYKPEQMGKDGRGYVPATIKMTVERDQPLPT
Summary of the method: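 Serially diluted compounds received a premix of STAT6 (W123-T658, 250 nM) and 5-FAM peptide probe (2 nM) in pH 7.4 HEPES buffer containing DTT and Tween 20. Following 45 min at room temperature, FP was recorded. IC50s were fitted by nonlinear regression; values are binned A (≤300 nM), B (>300-3000 nM), C (>3-30 μM), D (>30 μM).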

[3] = STAT3 (G127-I722) 25 nM, read-out: STAT3 (FP assay IC50 class)
[4] = STAT6 (W123-T658) 250 nM, read-out: STAT6 (FP assay IC50 class)
[5] = STAT3 25 nM, read-out: STAT3 (FP assay IC50)
[6] = STAT6 250 nM, read-out: STAT6 (FP assay IC50)

T1 sequence (P40763 127-722): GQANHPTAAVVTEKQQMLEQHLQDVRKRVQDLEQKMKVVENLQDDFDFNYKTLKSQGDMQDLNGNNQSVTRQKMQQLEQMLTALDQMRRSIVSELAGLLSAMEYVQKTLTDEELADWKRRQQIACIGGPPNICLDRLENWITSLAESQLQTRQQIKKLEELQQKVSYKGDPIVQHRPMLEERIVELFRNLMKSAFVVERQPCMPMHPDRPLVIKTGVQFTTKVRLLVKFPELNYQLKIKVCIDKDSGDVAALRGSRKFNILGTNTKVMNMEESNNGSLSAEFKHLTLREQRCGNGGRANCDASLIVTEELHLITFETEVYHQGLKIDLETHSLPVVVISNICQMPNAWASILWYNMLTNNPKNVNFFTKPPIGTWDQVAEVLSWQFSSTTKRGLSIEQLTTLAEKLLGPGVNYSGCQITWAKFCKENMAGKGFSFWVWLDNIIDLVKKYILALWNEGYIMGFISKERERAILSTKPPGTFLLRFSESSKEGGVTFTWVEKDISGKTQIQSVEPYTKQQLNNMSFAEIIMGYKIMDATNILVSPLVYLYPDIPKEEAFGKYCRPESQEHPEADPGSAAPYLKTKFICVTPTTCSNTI

SMILES | IC50 [1, 3] [nM] | IC50 [2, 4] [nM] | IC50 [1, 5] [nM] | IC50 [2, 6] [nM]
C[C@H]1C[C@H]2CC[C@@H](C(=O)N3C[C@@H](c4cccnc4)CC34CC4)N2C(=O)[C@@H](NC(=O)c2cc3cc([C@H](F)P(=O)(O)O)ccc3s2)C1 [Compound 834, ((R)-fluoro(2-(((3S,6S,8R,9aR)-8-methyl-5-oxo-3-((R)-6-(pyridin-3-yl)-4-azaspiro[2.4]heptane-4-carbonyl)octahydro-1H-pyrrolo[1,2-a]azepin-6-yl)carbamoyl)benzo [b]thiophen-5-yl)methyl) phosphonic acid] | 100 to 1000 | ≤ 300 | – | –
O=C(N[C@H]1CC[C@H](O)C[C@H]2CC[C@@H](C(=O)N3CC(c4cccnc4)C3)N2C1=O)c1cc2cc(C(F)(F)P(=O)(O)O)ccc2s1 [Compound 16, (difluoro(2-(((3S,6S,9S,10aR)-9-hydroxy-5-oxo-3-(3-(pyridin-3-yl)azetidine-1-carbonyl)decahydropyrrolo[1,2-a]azocin-6-yl)carbamoyl)benzo[b]thiophen-5-yl)methyl) phosphonic acid] | – | – | < 100 | 300 to 3000
Cn1cnc2cc(CNC(=O)[C@@H]3CC[C@@H]4CCC[C@H](NC(=O)c5cc6cc(C(F)(F)P(=O)(O)O)ccc6s5)C(=O)N43)cnc21 [Compound 1119, (difluoro(2-(((3S,6S,9aS)-3-(((3-methyl-3H-imidazo[4,5-b]pyridin-6-yl)methyl)carbamoyl)-5-oxooctahydro-1H-pyrrolo[1,2-a]azepin-6-yl)carbamoyl)benzo[b]thiophen-5-yl)methyl)phosphonic acid] | 100 to 1000 | 300 to 3000 | – | –
O=C(N[C@H]1C[C@H](O)CC[C@H]2CC[C@@H](C(=O)N3CC(C(=O)N4CCOCC4)C3)N2C1=O)c1cc2cc(C(F)(F)P(=O)(O)O)ccc2s1 [Compound 3, (difluoro(2-(((3S,6S,8R, 10aR)-8-hydroxy-3-(3-(morpholine-4-carbonyl)azetidine-1-carbonyl)-5-oxodeca-hydropyrrolo[1,2-a]azocin-6-yl)carbamoyl)benzo[b]thiophen-5-yl)methyl)phosphonic acid] | – | – | 100 to 1000 | 3000 to 30000
O=C(N[C@H]1CCC[C@H]2CC[C@@H](C(=O)N3CC(c4cnccc4C4CC4)C3)N2C1=O)c1cc2cc(CP(=O)(O)O)ccc2s1 [Compound 517, ((2-(((3S,6S,9aS)-3-(3-(4-cyclopropylpyridin-3-yl)azetidine-1-carbonyl)-5-oxooctahydro-1H-pyrrolo[1,2-a]azepin-6-yl)carbamoyl)benzo[b]thiophen-5-yl)methyl)phosphonic acid] | 100 to 1000 | 3000 to 30000 | – | –
COC1(c2cnccc2C)CN(C(=O)[C@@H]2CC[C@@H]3CCC[C@H](NC(=O)c4cc5cc(C(F)(F)P(=O)(O)O)ccc5s4)C(=O)N32)C1 [Compound 722, (difluoro(2-(((3S,6S,9aS)-3-(3-methoxy-3-(4-methylpyridin-3-yl)azetidine-1-carbonyl)-5-oxooctahydro-1H-pyrrolo[1,2-a]azepin-6-yl)carbamoyl)benzo [b]thiophen-5-yl)methyl) phosphonic acid] | 100 to 1000 | 3000 to 30000 | – | –
CCC[C@H]1CC[C@H](NC(=O)c2cc3cc(C(F)P(=O)(O)O)ccc3s2)C(=O)N2[C@H](CC[C@H]2C(=O)N2CC(c3cnccc3OC)C2)C1 (stereo partly drawn) [Compound 247, (fluoro(2-(((3S,6S,9S,10aR)-3-(3-(4-methoxypyridin-3-yl)azetidine-1-carbonyl)-5-oxo-9-propyldecahydropyrrolo[1,2-a]azocin-6-yl)carbamoyl)benzo[b]thiophen-5-yl)methyl)phosphonic acid] | < 100 | 3000 to 30000 | – | –

Results, then the molecule that gave them:

IC50 [1, 3] [nM] | IC50 [2, 4] [nM] | IC50 [1, 5] [nM] | IC50 [2, 6] [nM] | SMILES
100 to 1000 | 300 to 3000 | – | – | Cc1cccnc1C1CN(C(=O)[C@@H]2CC[C@@H]3CCC[C@H](NC(=O)c4cc5cc(C(F)(F)P(=O)(O)O)ccc5s4)C(=O)N32)C1 [Compound 658, (difluoro(2-(((3S,6S,9aS)-3-(3-(3-methylpyridin-2-yl)azetidine-1-carbonyl)-5-oxooctahydro-1H-pyrrolo[1,2-a]azepin-6-yl)carbamoyl)benzo [b]thiophen-5-yl)methyl) phosphonic acid]
1000 to 10000 | ≤ 300 | – | – | O=C(N[C@H]1CCCC[C@H]2CC[C@@H](C(=O)N3C(=O)N(c4cccc5c4OC(F)(F)O5)C(=O)C34CC4)N2C1=O)c1cc2cc(C(F)P(=O)(O)O)ccc2s1 (stereo partly drawn) [Compound 601, ((2-(((3S,6S,10aS)-3-(6-(2,2-difluorobenzo[d][1, 3]dioxol-4-yl)-5,7-dioxo-4,6-diazaspiro[2.4]heptane-4-carbonyl)-5-oxodecahydropyrrolo [1,2-a]azocin-6-yl)carbamoyl)benzo [b]thiophen-5-yl)fluoromethyl) phosphonic acid]
1000 to 10000 | 3000 to 30000 | – | – | O=C(N[C@H]1CCC[C@H]2CC[C@@H](C(=O)N3CC(c4ncc(C5CC5)cn4)C3)N2C1=O)c1cc2cc(C(F)(F)P(=O)(O)O)ccc2s1 [Compound 817, ((2-(((3S,6S,9aS)-3-(3-(5-cyclopropyl-pyrimidin-2-yl)azetidine-1-carbonyl)-5-oxooctahydro-1H-pyrrolo[1,2-a]azepin-6-yl)carbamoyl)benzo [b]thiophen-5-yl)difluoromethyl) phosphonic acid]
1000 to 10000 | ≤ 300 | – | – | O=C(N[C@H]1CCCC[C@H]2CC[C@@H](C(=O)N3C[C@H](c4cccnc4)CC34CC4)N2C1=O)c1cc2cc([C@@H](F)P(=O)(O)O)ccc2s1 (single isomer, unassigned) [Compound 909]
100 to 1000 | 3000 to 30000 | – | – | O=C(N[C@H]1CCCC[C@H]2CC[C@@H](C(=O)N3CC(c4ccc(=O)[nH]c4)C3)N2C1=O)c1cc2cc(C(F)(F)P(=O)(O)O)ccc2s1 [Compound 816, (difluoro(2-(((3S,6S,10aS)-5-oxo-3-(3-(6-oxo-1,6-dihydropyridin-3-yl)azetidine-1-carbonyl)decahydropyrrolo[1,2-a]azocin-6-yl)carbamoyl)benzo [b]thiophen-5-yl)methyl) phosphonic acid]
1000 to 10000 | 3000 to 30000 | – | – | Cc1nccnc1C1CN(C(=O)[C@@H]2CC[C@@H]3CCC[C@H](NC(=O)c4cc5cc(CP(=O)(O)O)ccc5s4)C(=O)N32)C1 [Compound 649, ((2-(((3S,6S,9aS)-3-(3-(3-methylpyrazin-2-yl)azetidine-1-carbonyl)-5-oxooctahydro-1H-pyrrolo[1,2-a]azepin-6-yl)carbamoyl)benzo [b]thiophen-5-yl)methyl) phosphonic acid]
– | – | 100 to 1000 | 3000 to 30000 | O=C(N[C@H]1C[C@H](OCc2ccccc2)CC[C@H]2CC[C@@H](C(=O)N3CC(C(=O)N4CCOCC4)C3)N2C1=O)c1cc2cc(C(F)(F)P(=O)(O)O)ccc2s1 [Compound 7, ((2-(((3S,6S,8R, 10aR)-8-(benzyloxy)-3-(3-(morpholine-4-carbonyl)azetidine-1-carbonyl)-5-oxodecahydropyrrolo [1,2-a]azocin-6-yl)carbamoyl)benzo[b]thiophen-5-yl)difluoromethyl) phosphonic acid]
1000 to 10000 | 300 to 3000 | – | – | N#CC1CN(C(=O)[C@@H]2CC[C@@H]3CC[C@H](NC(=O)c4cc5cc(C(F)(F)P(=O)(O)O)ccc5s4)C(=O)N32)C[C@@H]1c1ccccc1 (relative stereo) [Compound 733, ((2-(((3S,6S,8aS)-3-((rel-trans)-3-cyano-4-phenylpyrrolidine-1-carbonyl)-5-oxooctahydro-indolizin-6-yl)carbamoyl)benzo [b]thiophen-5-yl)difluoromethyl) phosphonic acid]
100 to 1000 | 300 to 3000 | – | – | O=C(N[C@H]1CCCC[C@H]2CC[C@@H](C(=O)NC3CN(C(=O)OCc4ccccc4)C3)N2C1=O)c1cc2cc(C(F)P(=O)(O)O)ccc2s1 (stereo partly drawn) [Compound 524, ((2-(((3S,6S,10aS)-3-((1-((benzyloxy)carbonyl)azetidin-3-yl)carbamoyl)-5-oxodecahydropyrrolo[1,2-a]azocin-6-yl)carbamoyl)benzo[b]thiophen-5-yl)fluoromethyl)phosphonic acid]
100 to 1000 | 3000 to 30000 | – | – | O=C(N[C@H]1CCC[C@H]2CC[C@@H](C(=O)N3CC(c4ncccc4F)C3)N2C1=O)c1cc2cc(C(F)P(=O)(O)O)ccc2s1 (stereo partly drawn) [Compound 623, (fluoro(2-(((3S,6S,9aS)-3-(3-(3-fluoropyridin-2-yl)azetidine-1-carbonyl)-5-oxooctahydro-1H-pyrrolo[1,2-a]azepin-6-yl)carbamoyl)benzo [b]thiophen-5-yl)methyl) phosphonic acid]
